Laboratory results published in PMC12005787, “Synthetic Lethality of SHP2 and XIAP Suppresses Proliferation and Metastasis in KRAS‐mutant Nonsmall Cell Lung Cancer” (Advanced Science, 2025).

What was measured:
NCI‐H2122 cells = assay: Apoptosis detection (Annexin-V-FITC/PI); type: cell-based, human; settings: 24 h
Procedure: NCI-H2122 cells treated with the given disposal were digested with trypsin, resuspended
in cold PBS, and centrifuged at room temperature (1000×g for 5 min) to discard the
supernatant. Approximately 100,000 cells were collected and 195 μL of Annexin V-FITC
conjugate was added to gently resuspend the cells and then 5 μL of Annexin V-FITC and 10
μL of propidium iodide (PI) staining solution were added respectively. They were then
incubated at 37 °C for 10-20 min in the dark, placed on ice, and passed through a flow
cytometer (Becton, Dickinson, Calibur, USA) for online detection. […]
(1 picture or pasted object on this page, not shown here)

A549 and NCI‐H2122 cells = assay: Cell invasion assay; type: cell-based, human; settings: embelin 1 and 2.5 µM; 24 h
Procedure: NCI-H2122 and A549 cells were pre-starved in serum-free medium for 24 h and resuspended in serum-free medium containing 5 mg mL-1 BSA. The cell suspension was added to Transwell chambers at a density of 5×105 mL-1, and RPMI-1640 or Ham F-12K medium containing 10% FBS was added to the bottom of the Transwell chambers.
Subsequently, drugs were added to the chambers and incubated at 37 °C for 48 h and cells were then fixed with 4% neutral formaldehyde for 40 min and stained with 0.1% crystal violet for 60 min. The chamber was washed with triple-distilled water, and images were collected using an inverted microscope. […]
Depending on the molecular weight of the proteins, different concentrations of sodium dodecyl-sulfate polyacrylamide gel electrophoresis (SDS-PAGE) separator gels were prepared for protein electrophoresis. Equal amounts of proteins were sampled and subjected to SDS-PAGE gel electrophoresis; at the end of electrophoresis, the proteins were transferred to nitrocellulose (NC) membranes. The NC membrane was blocked with 5% skim milk and covered with a specific primary antibody overnight at 4 °C, in which the primary antibody was diluted at a ratio of 1:500–1:5000. The NC membrane was […]

HePTP = target: T1, HePTP (Homo sapiens, UniProt P35236); assay: PTPs activity assay (DiFMUP); type: biochemical
T1 construct: His; made in house; host or cells: E. coli
T1 sequence (P35236 1-360): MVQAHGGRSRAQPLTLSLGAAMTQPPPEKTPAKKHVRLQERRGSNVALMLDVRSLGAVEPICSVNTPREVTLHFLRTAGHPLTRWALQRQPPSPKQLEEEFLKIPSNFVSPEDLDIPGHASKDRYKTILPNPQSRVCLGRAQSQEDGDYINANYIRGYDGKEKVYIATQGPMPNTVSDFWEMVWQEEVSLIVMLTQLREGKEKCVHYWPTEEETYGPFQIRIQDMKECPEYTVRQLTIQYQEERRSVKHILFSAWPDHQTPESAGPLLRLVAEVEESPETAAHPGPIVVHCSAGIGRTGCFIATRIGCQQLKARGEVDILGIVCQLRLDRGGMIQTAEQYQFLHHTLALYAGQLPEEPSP

PTP1B = target: T2, PTP1B (Homo sapiens, UniProt P18031); assay: PTPs activity assay (DiFMUP); type: biochemical; settings: read-out: IC50 of PTPs PTP1B
T2 construct: His; made in house; host or cells: E. coli
T2 sequence (P18031 1-435): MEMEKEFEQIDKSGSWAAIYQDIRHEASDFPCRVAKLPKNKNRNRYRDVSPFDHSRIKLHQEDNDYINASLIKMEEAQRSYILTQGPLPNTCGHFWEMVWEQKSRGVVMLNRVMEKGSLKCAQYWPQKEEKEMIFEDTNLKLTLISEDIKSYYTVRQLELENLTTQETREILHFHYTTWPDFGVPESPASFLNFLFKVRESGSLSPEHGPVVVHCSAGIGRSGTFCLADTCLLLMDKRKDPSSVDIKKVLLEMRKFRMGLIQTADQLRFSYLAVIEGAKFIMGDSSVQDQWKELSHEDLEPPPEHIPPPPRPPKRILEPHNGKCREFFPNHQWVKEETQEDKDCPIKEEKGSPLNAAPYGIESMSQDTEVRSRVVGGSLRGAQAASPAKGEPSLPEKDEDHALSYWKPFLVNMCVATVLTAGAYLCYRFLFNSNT

ΔSHP2 = target: T3, ΔSHP2 (Homo sapiens, UniProt Q06124); assay: PTPs activity assay (DiFMUP); type: biochemical
T3 construct: His‐ΔSHP2, encompassing the peptide from amino acids 205–593 retaining PTP activity; His; made in house; host or cells: E. coli
T3 sequence (Q06124 205-593): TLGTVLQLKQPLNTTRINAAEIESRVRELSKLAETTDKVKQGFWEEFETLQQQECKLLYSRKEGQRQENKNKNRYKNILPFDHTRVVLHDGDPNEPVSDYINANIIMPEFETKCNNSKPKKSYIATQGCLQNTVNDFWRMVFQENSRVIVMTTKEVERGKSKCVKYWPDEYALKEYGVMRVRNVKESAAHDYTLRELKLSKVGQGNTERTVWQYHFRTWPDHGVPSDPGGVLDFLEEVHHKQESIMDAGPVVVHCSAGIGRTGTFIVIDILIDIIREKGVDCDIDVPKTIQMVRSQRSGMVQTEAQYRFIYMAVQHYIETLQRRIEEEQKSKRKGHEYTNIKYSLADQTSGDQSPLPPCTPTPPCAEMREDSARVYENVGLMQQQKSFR

VHR = target: T4, VHR (Homo sapiens, UniProt P51452); assay: PTPs activity assay (DiFMUP); type: biochemical
T4 construct: His; made in house; host or cells: E. coli

ΔSHP1 = target: T5, ΔSHP1 (Homo sapiens, UniProt P29350); assay: PTPs activity assay (DiFMUP); type: biochemical
T5 construct: His‐ΔSHP1, encompassing the peptide from amino acids 202–595 retaining PTP activity; His; made in house; host or cells: E. coli
T5 sequence (P29350 202-595, stated change not applied): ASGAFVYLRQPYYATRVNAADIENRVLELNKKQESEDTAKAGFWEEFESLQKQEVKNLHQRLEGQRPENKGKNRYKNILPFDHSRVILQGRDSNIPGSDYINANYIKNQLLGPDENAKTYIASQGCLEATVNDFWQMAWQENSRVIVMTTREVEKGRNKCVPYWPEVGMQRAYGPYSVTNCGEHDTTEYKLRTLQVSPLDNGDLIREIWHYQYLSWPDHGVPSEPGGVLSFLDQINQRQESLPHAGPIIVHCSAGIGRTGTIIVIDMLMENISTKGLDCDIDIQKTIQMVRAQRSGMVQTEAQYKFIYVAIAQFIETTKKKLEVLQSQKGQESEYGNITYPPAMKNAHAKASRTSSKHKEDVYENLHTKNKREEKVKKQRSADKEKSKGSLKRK

T4 sequence (P51452 whole entry): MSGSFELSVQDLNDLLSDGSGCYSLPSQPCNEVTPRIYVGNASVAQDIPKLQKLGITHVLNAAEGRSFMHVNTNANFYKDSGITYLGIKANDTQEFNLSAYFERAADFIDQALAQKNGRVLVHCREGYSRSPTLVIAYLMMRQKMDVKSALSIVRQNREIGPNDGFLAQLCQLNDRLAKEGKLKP

Compound | effect on apoptosis (NCI‐H2122 cells) | effect on invasive ability (A549 and NCI‐H2122 cells) | IC50 (HePTP) | IC50 (PTP1B) | IC50 (ΔSHP2) | IC50 (VHR) | IC50 (ΔSHP1)
CCCCCCCCCCCC1=C(O)C(=O)C=C(O)C1=O [Embelin] | increased the proportion of early and late apoptotic cells | significantly inhibited the invasive ability | > 200 µM | > 200 µM | 10.5 µM | > 200 µM | > 200 µM
O=C1Nc2ccc(I)cc2/C1=C/c1cc(Br)c(O)c(Br)c1 [S2872, GW5074] | – | – | 472 µM | 110 µM | 33.8 µM | 131 µM | 246 µM
CC1(N)CCN(c2cnc(-c3cccc(Cl)c3Cl)c(N)n2)CC1 [SHP099] | promoted apoptosis | significantly inhibited the invasive ability | – | – | – | – | –
